# Assay results published in patent publication US20220008359A1, “COMBINATION ANTI-CANCER PRODUCTS AND METHODS” (priority 2020, published 2022).
# Marks after values point to notes of the source that are not given here.
# Test system: MCF7 cells
# Test: Immuno-staining of protein expression and protein phosphorylation, MCF7 cells
# Type: cell-based
# Design: ATM level / P-AMPKa level / P-317 (ULK1) level / ATG5 level / HDAC8 level / BIM level: scale not given here
# Protocol: ZR75-1 and MCF7 cells were treated with vehicle control, GZ17-6.02, Palbociclib or the drugs combined for 3 hours and for 6 hours. Cells were fixed in place and immuno-staining performed with in house validated antibodies to detect protein expression and protein phosphorylation.
structure (smiles),measurement,setting,value
"CC(=O)c1c(C)c2cnc(Nc3ccc(N4CCNCC4)cn3)nc2n(C2CCCC2)c1=O [PALBO, Palbociclib]",AKT level,"MCF7, 3 h",100
same,AMPKa level,"MCF7, 3 h",102
same,ATG5 level,"MCF7, 3 h",107
same,ATG13 level,"MCF7, 3 h",100
same,ATM level,"MCF7, 3 h",100
same,BAK level,"MCF7, 3 h",95
same,BAX level,"MCF7, 3 h",103
same,BCL-XL level,"MCF7, 3 h",99
same,BIM level,"MCF7, 3 h",109
same,Beclin1 level,"MCF7, 3 h",113#
same,CD95 level,"MCF7, 3 h",101
same,CHOP level,"MCF7, 3 h",112
same,Cyclin D level,"MCF7, 3 h",104
same,Cyclin E level,"MCF7, 3 h",104
same,ER level,"MCF7, 3 h",99
same,ERBB1 level,"MCF7, 3 h",99
same,ERBB2 level,"MCF7, 3 h",100
same,ERBB3 level,"MCF7, 3 h",101
same,ERK1/2 level,"MCF7, 3 h",100
same,ERK2 level,"MCF7, 3 h",100
same,ERRB4 level,"MCF7, 3 h",99
same,FAS-L level,"MCF7, 3 h",108
same,GRP78 level,"MCF7, 3 h",114#
same,HDAC1 level,"MCF7, 3 h",100
same,HDAC2 level,"MCF7, 3 h",94
same,HDAC3 level,"MCF7, 3 h",97
same,HDAC4 level,"MCF7, 3 h",99
same,HDAC5 level,"MCF7, 3 h",99
same,HDAC6 level,"MCF7, 3 h",100
same,HDAC7 level,"MCF7, 3 h",100
same,HDAC8 level,"MCF7, 3 h",100
same,HDAC9 level,"MCF7, 3 h",99
same,HDAC10 level,"MCF7, 3 h",99
same,HDAC11 level,"MCF7, 3 h",100
same,IDO1 level,"MCF7, 3 h",97
same,JAK2 level,"MCF7, 3 h",99
same,JNK1/2 level,"MCF7, 3 h",100
same,LATS1/2 level,"MCF7, 3 h",100
same,MCL1 level,"MCF7, 3 h",95
same,MHCA level,"MCF7, 3 h",102
same,NEDD4 level,"MCF7, 3 h",96
same,NFkB level,"MCF7, 3 h",101
same,ODC level,"MCF7, 3 h",103
same,P-89 (TAZ) level,"MCF7, 3 h",105
same,P-109 (YAP) level,"MCF7, 3 h",106
same,P-127 (YAP) level,"MCF7, 3 h",102
same,P-317 (ULK1) level,"MCF7, 3 h",109
same,P-397 (YAP) level,"MCF7, 3 h",96
same,P-757 (ULK1) level,"MCF7, 3 h",98
same,P-909 (LATS1/2) level,"MCF7, 3 h",99
same,P-1079 (LATS1/2) level,"MCF7, 3 h",109
same,P-AMPKa level,"MCF7, 3 h",112
same,P-ATG13 level,"MCF7, 3 h",116#
same,P-ATM level,"MCF7, 3 h",105
same,P-ERBB1 level,"MCF7, 3 h",100
same,P-ERBB2 level,"MCF7, 3 h",99
same,P-ERBB3 level,"MCF7, 3 h",111
same,P-ERBB4 level,"MCF7, 3 h",102
same,P-ERK level,"MCF7, 3 h",101
same,P-JAK2 level,"MCF7, 3 h",101
same,P-JNK level,"MCF7, 3 h",89
same,P-KIT level,"MCF7, 3 h",100
same,P-MET level,"MCF7, 3 h",100
same,P-NFkB level,"MCF7, 3 h",100
same,P-PDGFRb level,"MCF7, 3 h",103
same,P-PERK level,"MCF7, 3 h",109
same,P-S2448 (mTOR) level,"MCF7, 3 h",98
same,P-S2481 (mTOR) level,"MCF7, 3 h",98
same,P-T308 (AKT) level,"MCF7, 3 h",96
same,P-Y694 (STAT5) level,"MCF7, 3 h",98
same,P-Y705 (STAT3) level,"MCF7, 3 h",98
same,P-eIF2a level,"MCF7, 3 h",107
same,P-p38 level,"MCF7, 3 h",97
same,P-p70 T389 level,"MCF7, 3 h",105
same,PD-L1 level,"MCF7, 3 h",100
same,PD-L2 level,"MCF7, 3 h",100
same,PDGFRb level,"MCF7, 3 h",100
same,PERK level,"MCF7, 3 h",101
same,PP1 level,"MCF7, 3 h",98
same,PTEN level,"MCF7, 3 h",103
same,STAT3 level,"MCF7, 3 h",100
same,STAT5 level,"MCF7, 3 h",100
same,TAZ level,"MCF7, 3 h",101
same,ULK1 level,"MCF7, 3 h",100
same,Y416 (c-SRC) level,"MCF7, 3 h",100
same,Y527 (c-SRC) level,"MCF7, 3 h",98
same,YAP level,"MCF7, 3 h",99
same,c-KIT level,"MCF7, 3 h",100
same,c-MET level,"MCF7, 3 h",91
same,c-SRC level,"MCF7, 3 h",100
same,eIF2a level,"MCF7, 3 h",99
same,mTOR level,"MCF7, 3 h",100
same,p38 level,"MCF7, 3 h",101
same,p70 S6K level,"MCF7, 3 h",99
same,AKT level,"MCF7, 6 h",100
same,AMPKa level,"MCF7, 6 h",100
same,ATG5 level,"MCF7, 6 h",114#
same,ATG13 level,"MCF7, 6 h",101
same,ATM level,"MCF7, 6 h",99
same,BAK level,"MCF7, 6 h",109
same,BAX level,"MCF7, 6 h",95
same,BCL-XL level,"MCF7, 6 h",94
same,BIM level,"MCF7, 6 h",113#
same,Beclin1 level,"MCF7, 6 h",117#
same,CD95 level,"MCF7, 6 h",100
same,CHOP level,"MCF7, 6 h",116#
same,Cyclin D level,"MCF7, 6 h",108
same,Cyclin E level,"MCF7, 6 h",104
same,ER level,"MCF7, 6 h",91
same,ERBB1 level,"MCF7, 6 h",101
same,ERBB2 level,"MCF7, 6 h",100
same,ERBB3 level,"MCF7, 6 h",100
same,ERK1/2 level,"MCF7, 6 h",100
same,ERK2 level,"MCF7, 6 h",100
same,ERRB4 level,"MCF7, 6 h",100
same,FAS-L level,"MCF7, 6 h",111
same,GRP78 level,"MCF7, 6 h",115#
same,HDAC1 level,"MCF7, 6 h",99
same,HDAC2 level,"MCF7, 6 h",95
same,HDAC3 level,"MCF7, 6 h",101
same,HDAC4 level,"MCF7, 6 h",102
same,HDAC5 level,"MCF7, 6 h",98
same,HDAC6 level,"MCF7, 6 h",101
same,HDAC7 level,"MCF7, 6 h",101
same,HDAC8 level,"MCF7, 6 h",101
same,HDAC9 level,"MCF7, 6 h",100
same,HDAC10 level,"MCF7, 6 h",99
same,HDAC11 level,"MCF7, 6 h",99
same,IDO1 level,"MCF7, 6 h",96
same,JAK2 level,"MCF7, 6 h",100
same,JNK1/2 level,"MCF7, 6 h",100
same,LATS1/2 level,"MCF7, 6 h",100
same,MCL1 level,"MCF7, 6 h",91
same,MHCA level,"MCF7, 6 h",103
same,NEDD4 level,"MCF7, 6 h",97
same,NFkB level,"MCF7, 6 h",100
same,ODC level,"MCF7, 6 h",101
same,P-89 (TAZ) level,"MCF7, 6 h",103
same,P-109 (YAP) level,"MCF7, 6 h",104
same,P-127 (YAP) level,"MCF7, 6 h",104
same,P-317 (ULK1) level,"MCF7, 6 h",113#
same,P-397 (YAP) level,"MCF7, 6 h",99
same,P-757 (ULK1) level,"MCF7, 6 h",98
same,P-909 (LATS1/2) level,"MCF7, 6 h",99
same,P-1079 (LATS1/2) level,"MCF7, 6 h",112
same,P-AMPKa level,"MCF7, 6 h",117#
same,P-ATG13 level,"MCF7, 6 h",118#
same,P-ATM level,"MCF7, 6 h",109
same,P-ERBB1 level,"MCF7, 6 h",100
same,P-ERBB2 level,"MCF7, 6 h",100
same,P-ERBB3 level,"MCF7, 6 h",114#
same,P-ERBB4 level,"MCF7, 6 h",106
same,P-ERK level,"MCF7, 6 h",99
same,P-JAK2 level,"MCF7, 6 h",100
same,P-JNK level,"MCF7, 6 h",90
same,P-KIT level,"MCF7, 6 h",100
same,P-MET level,"MCF7, 6 h",96
same,P-NFkB level,"MCF7, 6 h",99
same,P-PDGFRb level,"MCF7, 6 h",105
same,P-PERK level,"MCF7, 6 h",103
same,P-S2448 (mTOR) level,"MCF7, 6 h",98
same,P-S2481 (mTOR) level,"MCF7, 6 h",96
same,P-T308 (AKT) level,"MCF7, 6 h",107
same,P-Y694 (STAT5) level,"MCF7, 6 h",98
same,P-Y705 (STAT3) level,"MCF7, 6 h",98
same,P-eIF2a level,"MCF7, 6 h",110
same,P-p38 level,"MCF7, 6 h",100
same,P-p70 T389 level,"MCF7, 6 h",110
same,PD-L1 level,"MCF7, 6 h",98
same,PD-L2 level,"MCF7, 6 h",98
same,PDGFRb level,"MCF7, 6 h",99
same,PERK level,"MCF7, 6 h",101
same,PP1 level,"MCF7, 6 h",99
same,PTEN level,"MCF7, 6 h",103
same,STAT3 level,"MCF7, 6 h",100
same,STAT5 level,"MCF7, 6 h",100
same,TAZ level,"MCF7, 6 h",100
same,ULK1 level,"MCF7, 6 h",100
same,Y416 (c-SRC) level,"MCF7, 6 h",101
same,Y527 (c-SRC) level,"MCF7, 6 h",103
same,YAP level,"MCF7, 6 h",99
same,c-KIT level,"MCF7, 6 h",102
same,c-MET level,"MCF7, 6 h",99
same,c-SRC level,"MCF7, 6 h",101
same,eIF2a level,"MCF7, 6 h",100
same,mTOR level,"MCF7, 6 h",100
same,p38 level,"MCF7, 6 h",103
same,p70 S6K level,"MCF7, 6 h",100
same,P-ERBB3 level,"MCF7, 6 h, listed as Palbo",114
